biological target: T1, Recombinant pure human SQSTM1 protein (Homo sapiens, UniProt Q13501); assay: Inhibition of IA-Rhodamine labeling of SQSTM1 (gel-based, densitometry); assay type: binding; settings: 50 μM of test compound (initial screen); 30 min at 37° C., then 100 nM IA-Rhodamine 1 hour; inhibition of target labeling by densitometry
T1 construct: purchased Origene
Procedure: Recombinant pure human SQSTM1 protein was purchased from Origene. SQSTM1 protein (0.21 μg) was diluted into 50 μL of PBS and 1 μL of either DMSO (vehicle) or covalently acting small molecule (test compound) to achieve the desired concentration. After 30 min. at 37° C., the samples were treated with 100 nM IA-Rhodamine (tetramethylrhodamine-5-iodoacetamide dihydroiodide; Setareh Biotech, 6222, prepared in anhydrous DMSO) for 1 hour at room temperature. Samples were then diluted with 20 μL of 4× reducing Laemmli SDS sample loading buffer (Alfa Aesar) and heated at 90° C. for 5 min. The samples were separated on precast 4-20% Criterion TGX gels (Bio-Rad Laboratories, Inc.). Fluorescent imaging was performed on a ChemiDoc MP instrument (Bio-Rad Laboratories, Inc.), and inhibition of target labeling was assessed by densitometry using ImageJ software. The initial screen was performed using 50 μM of test compound.

T1 sequence (Q13501 whole entry): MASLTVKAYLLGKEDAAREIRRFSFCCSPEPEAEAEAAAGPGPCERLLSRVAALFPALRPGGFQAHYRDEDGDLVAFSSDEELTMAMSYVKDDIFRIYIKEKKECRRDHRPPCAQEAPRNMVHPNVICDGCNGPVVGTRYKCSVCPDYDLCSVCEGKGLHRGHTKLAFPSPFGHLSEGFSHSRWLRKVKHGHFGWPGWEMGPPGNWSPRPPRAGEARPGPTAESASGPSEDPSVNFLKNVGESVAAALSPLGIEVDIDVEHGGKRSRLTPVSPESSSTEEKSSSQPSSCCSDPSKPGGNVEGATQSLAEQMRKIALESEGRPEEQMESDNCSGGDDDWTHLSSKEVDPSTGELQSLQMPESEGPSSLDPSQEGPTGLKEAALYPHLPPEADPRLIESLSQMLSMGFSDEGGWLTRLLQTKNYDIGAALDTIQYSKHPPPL

inhibition at 50 µM [%]	% inhibition	Compound
21	–	CC(C)(C)OC(=O)N1CCN(C(=O)CCl)CC(O)C1 (centres unmarked) [Compound 18, Tert-butyl 4-(2-chloroacetyl)-6-hydroxy-1,4-diazepane-1-carboxylate]
54	–	CC1CCN(C(=O)CCl)CCC1CNC(=O)OCc1ccccc1 (centres unmarked) [Compound 41, Benzyl ((1-(2-chloroacetyl)-5-methylazepan-4-yl)methyl)carbamate]
9	–	CC1(O)CCCN(C(=O)CCl)CC1 (centres unmarked) [Compound 49, 2-chloro-1-(4-hydroxy-4-methylazepan-1-yl)ethanone]
–	not active	O=C(CCl)N(C1CCNCC1)C1CCOCC1 [Compound 63, 2-chloro-N-(piperidin-4-yl)-N-(tetrahydro-2H-pyran-4-yl)acetamide]
21	–	CC1(C)CCCN(C(=O)CCl)CC1 [Compound 23, 2-chloro-1-(4,4-dimethylazepan-1-yl)ethanone]
59	–	CC1CN(C(=O)CCl)CCCC1CNC(=O)OCc1ccccc1 (centres unmarked) [Compound 28, Benzyl ((1-(2-chloroacetyl)-3-methylazepan-4-yl)methyl)carbamate]
–	25%	O=C(CCl)N(Cc1ccccc1)[C@H]1COC[C@@H]1O [Compound 5, N-benzyl-2-chloro-N-((3S,4R)-4-hydroxytetrahydrofuran-3-yl)acetamide]
27	–	O=C(CCl)N(C1CCNCC1)C1CC1 [Compound 62, 2-chloro-N-cyclopropyl-N-(4-piperidyl)acetamide]
–	not active	O=C(CCl)N1CCC(F)C(O)(C(F)(F)F)CC1 (centres unmarked) [Compound 24, 2-chloro-1-(5-fluoro-4-hydroxy-4-(trifluoromethyl)azepan-1-yl)ethanone]
29	–	O=C(CCl)N1CCCC(O)CC1 (centres unmarked) [Compound 15, 2-chloro-1-(4-hydroxyazepan-1-yl)ethan-1-one]
–	not active	CC1CCN(C(=O)CCl)CCC1(F)F (centres unmarked) [Compound 40, 2-chloro-1-(4,4-difluoro-5-methylazepan-1-yl)ethanone]
7	–	O=C(CCl)N1CCC(O)C(F)CC1 (centres unmarked) [Compound 48, 2-chloro-1-(4-fluoro-5-hydroxyazepan-1-yl)ethanone]
9	–	O=C(CCl)N1CCCC(F)CC1 (centres unmarked) [Compound 20, 2-chloro-1-(4-fluoroazepan-1-yl)ethanone]
31	–	CCOC(=O)C1(C)CCCCN(C(=O)CCl)C1 (centres unmarked) [Compound 25, Ethyl 1-(2-chloroacetyl)-3-methylazepane-3-carboxylate]
36	–	O=C1CCN(C(=O)CCl)CCC1F (centres unmarked) [Compound 47, 1-(2-chloroacetyl)-5-fluoroazepan-4-one]
38	–	CCN1CCCN(C(=O)CCl)CC1 [Compound 14, 2-chloro-1-(4-ethyl-1,4-diazepan-1-yl)ethan-1-one]
58	–	O=C(NCC1CCCCN(C(=O)CCl)C1)OCc1ccccc1 (centres unmarked) [Compound 27, Benzyl ((1-(2-chloroacetyl)azepan-3-yl)methyl)carbamate]
17	–	CC1(CNC(=O)OCc2ccccc2)CCCN(C(=O)CCl)CC1 (centres unmarked) [Compound 35, Benzyl ((1-(2-chloroacetyl)-4-methylazepan-4-yl)methyl)carbamate]
14	–	O=C(NCC1(O)CCCN(C(=O)CCl)CC1)OCc1ccccc1 (centres unmarked) [Compound 34, Benzyl ((1-(2-chloroacetyl)-4-hydroxyazepan-4-yl)methyl)carbamate]
50	–	O=C(NCC1(O)CCCCN(C(=O)CCl)C1)OCc1ccccc1 (centres unmarked) [Compound 30, Benzyl ((1-(2-chloroacetyl)-3-hydroxyazepan-3-yl)methyl)carbamate]
–	not active	CC1CN(C(=O)CCl)CCCO1 (centres unmarked) [Compound 22, 2-chloro-1-(2-methyl-1,4-oxazepan-4-yl)ethanone]
32	–	CC1CCN(C(=O)CCl)CCC1=O (centres unmarked) [Compound 42, 1-(2-chloroacetyl)-5-methylazepan-4-one]
57	–	O=C1CC(N(Cc2ccccc2)C(=O)CCl)CN1Cc1ccccc1 (centres unmarked) [Compound 11, N-benzyl-N-(1-benzyl-5-oxo-pyrrolidin-3-yl)-2-chloro-acetamide]

inhibition at 50 µM [%]	% inhibition	Compound
17	–	O=C(CCl)N(Cc1ccccc1)[C@H]1COC[C@@H]1O [Compound 10, N-benzyl-2-chloro-N-[(3S,4R)-4-hydroxytetrahydrofuran-3-yl]acetamide]
20	–	CC1(O)CCCCN(C(=O)CCl)C1 (centres unmarked) [Compound 39, 2-chloro-1-(3-hydroxy-3-methylazepan-1-yl)ethanone]
50	–	CC(C)N(C(=O)CCl)C1CCCN(C(=O)OC(C)(C)C)CC1 (centres unmarked) [Compound 8, Tert-butyl 4-(2-chloro-N-isopropylacetamido)azepane-1-carboxylate]
18	–	O=C(CCl)N(Cc1ccccc1)[C@H]1CCC[C@@H]1O [Compound 4, N-benzyl-2-chloro-N-((1S,2S)-2-hydroxycyclopentyl)acetamide]
22	–	O=C(CCl)N1CCCC2(CCCN2)CC1 (centres unmarked) [Compound 69, 2-chloro-1-(1,8-diazaspiro[4.6]undecan-8-yl)ethanone]
58	–	O=C(CCl)N(Cc1ccccc1)C1CCCC[C@H]1CO (stereo in doubt) [Compound 3, N-benzyl-2-chloro-N-(cis-2-(hydroxymethyl)cyclohexyl)acetamide]
17	–	O=C(CCl)N1CCCCC(O)(CF)C1 (centres unmarked) [Compound 32, 2-chloro-1-(3-(fluoromethyl)-3-hydroxyazepan-1-yl)ethanone]
56	–	CC(C)(C)OC(=O)N1CCC(N(C(=O)CCl)C2CC2)CC1 [Compound 6, Tert-butyl 4-(2-chloro-N-cyclopropylacetamido)piperidine-1-carboxylate]
–	not active	CC1CCN(C(=O)CCl)CCC1O (centres unmarked) [Compound 45, 2-chloro-1-(4-hydroxy-5-methylazepan-1-yl)ethanone]
20	–	O=C(CCl)N1CCCN(c2ccc(F)cn2)CC1 [Compound 16, 2-chloro-1-(4-(5-fluoropyridin-2-yl)-1,4-diazepan-1-yl)ethanone]
7	–	COC(=O)c1ccc(CN(C(=O)CCl)C2CCNCC2)[nH]1 [Compound 65, Methyl 5-[[(2-chloroacetyl)-(4-piperidyl)amino]methyl]-1H-pyrrole-2-carboxylate]
21	–	CC(C)(C)OC(=O)N1CCN(C(=O)CCl)CC2(CCCC(=O)N2)C1 (centres unmarked) [Compound 60, Tert-butyl 11-(2-chloroacetyl)-2-oxo-1,8,11-triazaspiro[5.6]dodecane-8-carboxylate]
50	–	O=C(CCl)N(Cc1ccccc1)C1CCCCC1 [Compound 2, N-benzyl-2-chloro-N-cyclohexylacetamide]
22	–	CC(C)N(C(=O)CCl)C1CCCNCC1 (centres unmarked) [Compound 64, N-(azepan-4-yl)-2-chloro-N-isopropyl-acetamide]
58	–	CC(C)(C)OC(=O)N1CCCC12CCCN(C(=O)CCl)CC2 (centres unmarked) [Compound 57, Tert-butyl 8-(2-chloroacetyl)-1,8-diazaspiro[4.6]undecane-1-carboxylate]
13	–	O=C(CCl)N1CCCCC(O)C1 (centres unmarked) [Compound 44, 2-chloro-1-(3-hydroxyazepan-1-yl)ethanone]
64	–	COC(=O)c1ccc(CN(C(=O)CCl)C2CCN(C(=O)OC(C)(C)C)CC2)[nH]1 [Compound 9, Tert-butyl 4-(2-chloro-N-((5-(methoxycarbonyl)-1H-pyrrol-2-yl)methyl)acetamido) piperidine-1-carboxylate]
11	–	CC1CCCN(C(=O)CCl)CC1 (centres unmarked) [Compound 21, 2-chloro-1-(4-methylazepan-1-yl)ethanone]
30	–	CC(C)(C)OC(=O)NC1CCCCN(C(=O)CCl)C1 (centres unmarked) [Compound 37, Tert-butyl (1-(2-chloroacetyl)azepan-3-yl)carbamate]
18	–	CC(C)(C)OC(=O)N1CC2CC1CN(C(=O)CCl)C2 (centres unmarked) [Compound 61, Tert-butyl 3-(2-chloroacetyl)-3,6-diazabicyclo[3.2.1]octane-6-carboxylate]
–	not active	C[C@H]1CN(C(=O)OC(C)(C)C)CCCN1C(=O)CCl [Compound 12, (S)-tert-butyl 4-(2-chloroacetyl)-3-methyl-1,4-diazepane-1-carboxylate]
33	–	O=C(CCl)N1CCCSCC1 [Compound 51, 2-chloro-1-(1,4-thiazepan-4-yl)ethanone]
61	–	CC(C)(C)OC(=O)N1CCC(N(C(=O)CCl)C2CCOCC2)CC1 [Compound 7, Tert-butyl 4-(2-chloro-N-(tetrahydro-2H-pyran-4-yl)acetamido)piperidine-1-carboxylate]

Compound	inhibition at 50 µM [%]	% inhibition
O=C(CCl)N1CC2CNC(C2)C1 (centres unmarked) [Compound 73, 2-chloro-1-(3,6-diazabicyclo[3.2.1]octan-3-yl)ethanone]	38	–
O=C1CCCC2(CNCCN(C(=O)CCl)C2)N1 (centres unmarked) [Compound 72, 8-(2-chloroacetyl)-1,8,11-triazaspiro[5.6]dodecan-2-one]	–	not active
O=C(CCl)N1CCOCC2(CNCCO2)C1 (centres unmarked) [Compound 71, 2-chloro-1-(1,8-dioxa-4,11-diazaspiro[5.6]dodecan-11-yl)ethanone]	–	not active
O=C(CCl)N1CCCCC2(CCCCNC2)C1 (centres unmarked) [Compound 70, 2-chloro-1-(2,9-diazaspiro[6.6]tridecan-2-yl)ethanone]	22	–

— patent US20220387411A1, “TARGETED AUTOPHAGY CONJUGATES AND METHODS” (Frontier Medicines Corporation, priority 2019, published 2022)
